Here are results for one substance from patent US6217866A, “Monoclonal antibodies specific to human epidermal growth factor receptor and therapeutic methods employing same” (Rhone-Poulenc Rorer International (Holdings), Inc., priority 1995, dated 2001).

The test system of one assay is KB cells. As to the kind of experiment: colony inhibition assay of KB cells. The format is cell-based, human. As to the method: KB cells were seeded in petri dishes (50×15 mm^2, NUNC) at a concentration of 2×10^2 cells per dish. […] On the sixth day cultures were fed with fresh medium containing the above ingredients. On the 15th day the cultures were washed with PBS, fixed with 4% v/v formaldehyde in PBS for 15 min. and stained with hematoxylin. Number of formed colonies (25 cells) was then determined.

Assay [1] concerns EGF receptors exposed on KB cells. Put plainly: competitive radioimmunoassay with 125I 108 monoclonal antibody on KB cells. It counts as binding, human. The protocol:
The cells were then washed, solubilized in 0.5N NaOH and their radioactivity was determined in a counter (Kontron, Switzerland). Non-specific binding was determined by the addition of 100-fold excess of unlabelled monoclonal antibody.

As for epidermal growth factor [EGF], the “size of KB cell colonies” value in the assay with KB cells (EGF) is recorded as “increase in the size of KB cell colonies”. Moreover, the “number of colonies compared to cells incubated in absence of growth factor” value in the assay with KB cells (EGF 160 nM, 15 days after seeding) was 150%. Further, the “maximal level of competition with binding of the antibody to the receptor” value in assay [1] is given as “about 70%”.
